Our source for the EC50 values is BindingDB's records for doi:10.1016/j.bmc.2021.116498 (Kyushu University, 2021).

Numbered stars: 1 amine (or outer) side, 2 acyl side, 3 side chain; on linkers, the order of the positions; unused ones are H or OH. Square brackets hold non-standard residues; d marks the D form. Peptide text beside a SMILES is read from it. X2 = O=C([C@H](Cc1c(F)cc(F)c(F)c1F)N[*:1])[*:2]; X3 = O=C([C@H](Cc1cc(F)c(F)c(F)c1F)N[*:1])[*:2]; Cha = N[C@@H](CC1CCCCC1)C(=O)O

This test can be described thus: Activation of PAR-1 in human platelet-rich plasma assessed as induction of platelet aggregation by turbidimetric method.

As usually defined, the EC50 is the midpoint of the concentration-response curve. On to `CC(C)C[C@H](NC(=O)[C@H](CC(C)C)NC(=O)[C@H](Cc1c(F)cc(F)c(F)c1F)NC(=O)[C@@H](N)CO)C(=O)N[C@@H](CCCNC(=N)N)C(=O)N[C@@H](CC(N)=O)C(=O)N1CCC[C@H]1C(N)=O` (H-S[X2]LLRNP-NH2), for which the EC50 came out at 8.9 µM. Consider “H-SFLLRNP-NH2 [1-{(S)-2-[(S)-2-((S)-2-{(S)-2-[(S)-2-((S)-2-Amino-3-hydroxy-propionylamino)-3-phenyl-propionylamino]-4-methyl-pentanoylamino}-4-methyl-pentanoylamino)-5-guanidino-pentanoylamino]-3-carbamoyl-propionyl}-pyrrolidine-2-carboxylic acid amide]”, for which the EC50 came to 3 µM. Regarding `CC(C)C[C@H](NC(=O)[C@H](CC(C)C)NC(=O)[C@H](Cc1cc(F)c(F)c(F)c1F)NC(=O)[C@@H](N)CO)C(=O)N[C@@H](CCCNC(=N)N)C(=O)N[C@@H](CC(N)=O)C(=O)N1CCC[C@H]1C(N)=O` (H-S[X3]LLRNP-NH2), the EC50 is 50 µM. The figure for `CC(C)C[C@H](NC(=O)[C@H](CC(C)C)NC(=O)[C@H](CC1CCCCC1)NC(=O)[C@@H](N)CO)C(=O)N[C@@H](CCCNC(=N)N)C(=O)N[C@@H](CC(N)=O)C(=O)N1CCC[C@H]1C(N)=O` (H-S[Cha]LLRNP-NH2) is 99 µM.
